Tests used:
mice = assay: Carrageenan-evoked paw edema (acute); type: in vivo, mouse; details: wild-type C57Bl6J; PEA 10 mg-kg^−1 i.p., WY-14643 20 mg-kg^−1 i.p.
Text: In addition to rapid-onset analgesia, PEA also exerts prolonged anti-inflammatory effects [Benvenuti, et al., Boll Soc It Biol Sper 44, 809-813 (1968); Lambert, et al., Curr Med. Chem. 9, 663-74 (2002)], which are associated with the down-regulation of pro-inflammatory proteins such as nitric oxide synthase (NOS) [Costa, et al., Br J Pharmacol 137, 413-20. (2002)]. Two models of acute inflammation were used to examine whether such effects are mediated through PPARα. First, paw edema was induced in C57B16J wild-type and PPARα^−/− mice by local injection of the irritant, carrageenan [Cirino, et al., Eur J Pharmacol 166, 505-10 (1989)]. […] Next, ear edema was produced in CD1 mice by topical administration of the phorbol ester, 12-O-tetradecanoylphorbol-13-acetate (TPA) [Sheu, et al., J Invest Dermatol., 94-101. (2002)]. […] In a parallel set of experiments, the effects of PEA (20 μg) on TPA-induced edema were tested in C57B16J wild-type and PPARα^−/− mice. […] Together, these findings indicate that PEA reduces acute nociception and inflammation through activation of PPARα.
An inflammatory response was initiated by injecting 2% (w v^−1, 20 μl) λ-carrageenan in sterile saline into mice hind paws using a 27-gauge needle. Drugs were administered 30 minutes before carrageenan (i.p.). Paw edema was measured using a plethysmometer (Ugo Basile, Italy).

human PPARα = molecular target: T1, human PPARα (Homo sapiens, UniProt Q07869); assay: PPARα transactivation assay (HeLa cells, luciferase reporter); type: cell-based; details: HeLa cells, n=12; read-out: half-maximal effective concentration (EC50), PPARα activation
T1 construct: expressed in transfected cells
T1 sequence (Q07869 239-466 limits assumed): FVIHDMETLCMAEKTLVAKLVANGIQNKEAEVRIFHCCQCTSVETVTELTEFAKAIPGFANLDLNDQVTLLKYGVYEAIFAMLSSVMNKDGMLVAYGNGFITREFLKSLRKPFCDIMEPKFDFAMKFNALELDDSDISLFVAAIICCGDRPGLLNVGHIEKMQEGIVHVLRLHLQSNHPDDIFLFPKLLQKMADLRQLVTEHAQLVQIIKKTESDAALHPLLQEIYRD
Description: Transactivation assays were performed as previously described [Fu et al., Nature 425:90-93 (2003)].
PPAR-α transactivation. Plasmids were generated which contained the ligand-binding domain of human PPAR-α (nucleotides 499-1,407) fused to the DNA-binding domain of yeast GAL4 under control of the human cytomegalovirus promoter and to a neomycin resistance gene to provide stable selection with 0.2 mg-ml-1 G418 (Calbiochem). We cultured HeLa cells in Dulbecco's-modified Eagles's medium (DMEM) supplemented with fetal bovine serum (10%), transfected them with Fugene 6 ([…], Roche) containing the pFR-luc plasmid ([…], Stratagene) and, 18 h later, replaced the media with DMEM containing hygromycin (0.1 mg ml−1, Calbiochem). […] Cells were maintained in DMEM containing hygromycin and G418. For transactivation assays, we seeded cells in 6-well plates and incubated them for 7 h in DMEM containing hygromycin and G418, plus appropriate concentrations of test compounds. We used a dual-luciferase reporter assay system (Promega) and an MLX Microtiter® plate luminometer (Dynex) to determine luciferase activity in cell lysates.

[1] = test system: PKA-IIα regulatory subunit phosphorylation on Ser^96; assay: Immunoblot of lumbar spinal cord extracts, phosphorylated PKA regulatory subunit; type: in vivo, mouse; details: neuropathic mice, PEA 30 mg-kg^−1 s.c. once daily for two weeks
Description: Opiate analgesics have a high liability to produce tolerance, a progressive loss of pharmacological activity caused by repeated drug administrations (Waldhoer et al., Annu Rev Biochem, 73, 953 (2004)). To assess whether tolerance develops to the antihyperalgesic effects of PPARα agonists, PEA (30 mg-kg^−1, s.c.) was administered once a day for 14 consecutive days from the time of surgery, measuring mechanical and thermal hyperalgesia at day 7 and 14.
Immunoblot analysis. Lumbar spinal cord tissue was weighed, homogenized in Tris-HCl (20 mM, pH 7.5), 10 mM NaF, 150 mM NaCl, 1% Nonidet P-40, 1 mM PMSF, 1 mM Na3VO4, leupeptin and trypsin inhibitor (10 μg/ml). After 1 h, the tissue lysates were subjected to centrifugation ay 100,000×g for 15 min at 4° C. Protein concentrations were estimated using a Bio-Rad protein assay and bovine serum albumin as a standard. Equal amounts of protein (20 μg) were dissolved in Laemmli sample buffer, boiled for 5 min, subjected to sodium dodecyl sulphate-polyacrylamide gel electrophoresis (8% polyacrylamide) and transferred onto nitrocellulose membranes at 240 mA for 40 min at room temperature. […] The films were scanned and densitometrically analysed with a model GS-700 imaging densitometer.

[2] = Tissue PEA levels after subcutaneous PEA (LC/MS); type: in vivo, mouse; details: daily PEA injections s.c.
Description: LC/MS analysis. PEA was measured by high-performance liquid chromatography/tandem mass spectrometry. Tissue samples were weighed, cut into 1 mm^2 pieces, and incubated with 1 mL of acetonitrile at 4° C. overnight. Samples of the incubates (100 μl) were transferred to 96-well plates, diluted with 250 μL of acetonitrile containing [H2]-ethanolamine-OEA as an internal standard, and injected into the HPLC. HPLC analyses were carried out on a Waters 2790 Alliance system (Milford, Mass.) using a Phenomenex Synergi Polar-RP column (2 mm×150 mm, 4μ; Torrance, Calif.) and a mobile phase of 0.1% formic acid in water (solvent “A”) and 0.1% formic acid in acetonitrile (solvent “B”). Run conditions were isocratic (25% A and 75% B), at a flow rate of 0.3 mL min^−1, column temperature of 45° C., and a run time of 3 minutes. The HPLC system was interfaced with a Micromass Ultima (Beverly, Mass.) tandem mass spectrometer. The samples were analyzed using an electrospray probe in the positive ionization mode with the cone voltage set at 40 V and capillary at 3.2 kV. The source and desolvation temperature settings were 130° C. and 500° C., respectively. The voltage of the CID chamber was set at −17 eV. Multiple reaction monitoring was used for the detection of PEA as [M+H]^+ (m/z 300>62) and the standard as [M+H]^+ (m/z 330>66).

Compound: CCCCCCCCCCCCCCCC(=O)NCCO [PEA, palmitoylethanolamide]
- carrageenan paw edema in wild-type mice (mice): decreased edema
- EC50 (human PPARα): 3 µM
- phosphorylation of PKA-IIα regulatory subunit at Ser^96 [1]: reduced
- brain PEA levels vs vehicle-treated mice [2]: significantly higher

From patent US20080103209A1, “Compounds And Methods For Treating Non-Inflammatory Pain Using Ppar Alpha Agonists” (The Regents of The University of California, priority 2004, published 2008)
